Where a name gives a salt, the structure may show the parent alone.
Each compound was assayed on sodium channels. Conditions: read-out: IC50 (μM), sodium channel-inhibiting activity; rat fetal cultured hippocampal neurons, SBFI fluorescence in the presence of 4-aminopyridine, 5 minutes after addition, 1 μM tetrodotoxin = 100%.
Assay type: cell-based

Row | Structure (SMILES) | IC50 [µM]
1 | O=c1[nH]ccnc1CN1CCC(C[S+]([O-])c2ccccc2F)CC1 (centres unmarked) [Example 337, 3-[4-[(2-Fluorophenylsulfinyl)methyl]piperidino]methyl-1H-pyrazin-2-one] | 6.5
2 | CCOc1ccccc1OCC1CCN(Cc2ncc[nH]c2=O)CC1 [Example 165, 3-[4-(2-Ethoxyphenoxymethyl)piperidino]methyl-1H-pyrazin-2-one] | 8.4
3 | O=c1[nH]ccnc1CN1CCOC(/C=C/c2ccccc2F)C1 (centres unmarked) [Example 341, (E)-3-[3-[2-(2-Fluorophenyl)vinyl]morpholin-1-yl]methyl-1H-pyrazin-2-one] | 7.1
4 | CCCOc1ccccc1CC(=O)C1CCN(Cc2ncc[nH]c2=O)CC1 [Example 348, 3-[4-[2-(2-n-Propoxyphenyl)acetyl]piperidino]methyl-1H-pyrazin-2-one] | 2.6
5 | O=C(Cc1cccc2ccccc12)C1CCN(Cc2ncc[nH]c2=O)CC1 [Example 353, 3-[4-[2-(1-Naphthyl)acetyl]piperidino]methyl-1H-pyrazin-2-one] | 1.7
6 | O=C(Cc1cc(F)ccc1F)C1CCN(Cc2ncc[nH]c2=O)CC1 [Example 194, 3-[4-[2-(2,5-Difluorophenyl)acetyl]piperidino]methyl-1H-pyrazin-2-one] | 6.6
7 | O=c1[nH]ccnc1CN1CCC(SCc2ccccc2F)CC1 [Example 411, 3-[4-(2-Fluorobenzylthio)piperidino]methyl-1H-pyrazin-2-one] | 4.8
8 | O=c1cncc(CCN2CCC(O)(C#Cc3ccccc3F)CC2)[nH]1 [Example 120, 6-[2-[4-Hydroxy-4-[(2-fluorophenyl)ethynyl]piperidino]ethyl]-1H-pyrazin-2-one] | 8.5
9 | CCOC(=O)C1(CCc2ccccc2)CCN(Cc2ccc[nH]c2=O)CC1 [Example 255, 3-[4-(Ethoxycarbonyl)-4-(2-phenylethyl)piperidino]methyl-1H-pyridin-2-one] | 3.1
10 | O=C(Cc1ccccc1C(F)(F)F)C1(F)CCN(Cc2ncc[nH]c2=O)CC1 [Example 372, 3-[4-Fluoro-4-[2-[2-(trifluoromethyl)phenyl]acetyl]piperidino]methyl-1H-pyrazin-2-one] | 3.3
11 | O=c1[nH]ccnc1CN1CCC2(CC1)CC(Oc1ccccc1F)C2 [Example 226, 3-[2-(2-Fluorophenoxy)-7-azaspiro[3.5]non-7-yl]methyl-1H-pyrazin-2-one] | 4.5
12 | O=C(Cc1ccccc1F)C1CCN(Cc2nc3ccccc3[nH]c2=O)CC1 [Example 206, 3-[4-[2-(2-Fluorophenyl)acetyl]piperidino]methyl-1H-quinoxalin-2-one] | 5.2
13 | COc1cccc(OCC2CCN(Cc3ncc[nH]c3=O)CC2)c1 [Example 161, 3-[4-(3-Methoxyphenoxymethyl)piperidino]methyl-1H-pyrazin-2-one] | 3.5
14 | Cc1ccccc1OCC1(C#N)CCN(Cc2ncc[nH]c2=O)CC1 [Example 121, 1-(3-Oxo-3,4-dihydro-2-pyrazinylmethyl)-4-(2-methylphenoxymethyl)piperidine-4-carbonitrile] | 5.7
15 | O=c1[nH]ccnc1CN1CCC(c2nc(-c3ccccc3)no2)CC1 [Example 215, 3-[4-(3-Phenyl-1,2,4-oxadiazol-5-yl)piperidino]methyl-1H-pyrazin-2-one] | 4.1
16 | O=c1[nH]ccnc1CN1CCC(CS(=O)(=O)c2ccccc2F)CC1 [Example 338, 3-[4-[(2-Fluorophenylsulfonyl)methyl]piperidino]methyl-1H-pyrazin-2-one] | 9.8
17 | CC(C(=O)C1CCN(Cc2ncc[nH]c2=O)CC1)c1ccccc1F (centres unmarked) [Example 349, 3-[4-[2-(2-Fluorophenyl)propionyl]piperidino]methyl-1H-pyrazin-2-one] | 8.9
18 | O=C(Cc1ccccc1F)C1(F)CCN(Cc2ncc[nH]c2=O)CC1 [Example 370, 3-[4-Fluoro-4-[2-(2-fluorophenyl)acetyl]piperidino]methyl-1H-pyrazin-2-one] | 9.6
19 | N#Cc1ccccc1OCC1CCN(Cc2ncc[nH]c2=O)CC1 [Example 166, 3-[4-(2-Cyanophenoxymethyl)piperidino]methyl-1H-pyrazin-2-one] | 8.7
20 | O=c1[nH]ccnc1CN1CCOC(COc2ccccc2F)C1 (centres unmarked) [Example 342, 3-[3-(2-Fluorophenoxymethyl)morpholin-1-yl]methyl-1H-pyrazin-2-one] | 3
21 | O=C(Cc1cccc(F)c1)C1CCN(Cc2ncc[nH]c2=O)CC1 [Example 191, 3-[4-[2-(3-Fluorophenyl)acetyl]piperidino]methyl-1H-pyrazin-2-one] | 7.1
22 | CCOC(=O)C1(CCc2ccccc2)CCN(Cc2ncc[nH]c2=O)CC1 [Example 216, 3-[4-(Ethoxycarbonyl)-4-(2-phenylethyl)piperidino]methyl-1H-pyrazin-2-one] | 3.2
23 | O=C(Cc1ccccc1)C1CCN(Cc2ncc[nH]c2=O)CC1 [Example 196, 3-[4-(2-Phenylacetyl)piperidino]methyl-1H-pyrazin-2-one] | 6.2
24 | O=c1[nH]ccnc1CN1CCC(COc2ccc(F)cc2)CC1 [Example 199, 3-[4-(4-Fluorophenoxymethyl)piperidino]methyl-1H-pyrazin-2-one] | 6.2

Row | Structure (SMILES) | IC50 [µM]
25 | Cc1ccccc1CCC1(O)CCN(Cc2ccc[nH]c2=O)CC1 [Example 125, 3-[4-Hydroxy-4-[2-(2-methylphenyl)ethyl]piperidino]methyl-1H-pyridin-2-one] | 5
26 | O=c1[nH]ccnc1CN1CCC(O)(C#Cc2ccccc2F)CC1 [Example 217, 3-[4-(2-Fluorophenyl)ethynyl-4-hydroxypiperidino]methyl-1H-pyrazin-2-one] | 1.8
27 | O=C(Cc1ccccc1OC(F)(F)F)C1CCN(Cc2ncc[nH]c2=O)CC1 [Example 345, 3-[4-[2-[2-(Trifluoromethoxy)phenyl]acetyl]piperidino]methyl-1H-pyrazin-2-one] | 2.1
28 | O=c1[nH]ccnc1CN1CCC(O)(COc2ccccc2F)CC1 [Example 211, 3-[4-Hydroxy-4-(2-fluorophenoxymethyl)piperidino]methyl-1H-pyrazin-2-one] | 8.2
29 | Cn1c(CCN2CCC(COc3ccccc3F)CC2)cncc1=O [Example 249, 6-[2-[4-(2-Fluorophenoxymethyl)piperidino]ethyl]-1-methyl-1H-pyrazin-2-one] | 3.2
30 | O=c1cncc(CCN2CCC(C#Cc3ccccc3F)CC2)[nH]1 [Example 244, 6-[2-[4-[(2-Fluorophenyl)ethynyl]piperidino]ethyl]-1H-pyrazin-2-one] | 3.1
31 | O=c1[nH]ccnc1CN1CCC(/C=C/c2sccc2F)CC1 [Example 173, (E)-3-[4-[2-(3-Fluoro-2-thienyl)vinyl]piperidino]methyl-1H-pyrazin-2-one] | 4.3
32 | CC1(COc2ccccc2F)CCN(Cc2ncc[nH]c2=O)CC1 [Example 406, 3-[4-(2-Fluorophenoxymethyl)-4-methylpiperidino]methyl-1H-pyrazin-2-one] | 3
33 | O=C(Cc1ccccc1Br)C1CCN(Cc2ncc[nH]c2=O)CC1 [Example 362, 3-[4-[2-(2-Bromophenyl)acetyl]piperidino]methyl-1H-pyrazin-2-one] | 4.5
34 | O=c1cncc(CCN2CCC(COc3cccc(F)c3F)CC2)[nH]1 [Example 242, 6-[2-[4-(2,3-Difluorophenoxymethyl)piperidino]ethyl]-1H-pyrazin-2-one] | 6.2
35 | O=C(Cc1cccc2c1OCC2)C1CCN(Cc2ncc[nH]c2=O)CC1 [Example 410, 3-[4-[2-(2,3-Dihydrobenzofuran-7-yl)acetyl]piperidino]methyl-1H-pyrazin-2-one] | 5.7
36 | Cc1ccccc1C#CC1(O)CCN(Cc2ncc[nH]c2=O)CC1 [Example 218, 3-[4-(2-Methylphenyl)ethynyl-4-hydroxypiperidino]methyl-1H-pyrazin-2-one] | 3.6
37 | O=c1[nH]ccnc1CN1CCOC(CCc2ccccc2F)C1 (centres unmarked) [Example 340, 3-[3-[2-(2-Fluorophenyl)ethyl]morpholin-1-yl]methyl-1H-pyrazin-2-one] | 7.1
38 | C[C@H]1C[C@H](C(=O)Cc2ccccc2F)CCN1Cc1ncc[nH]c1=O (relative stereo) [Example 414, trans-3-[4-[2-(2-Fluorophenyl)acetyl]-2-methylpiperidino]methyl-1H-pyrazin-2-one] | 7.9
39 | O=c1[nH]ccnc1CN1CCC(CCOc2ccccc2F)CC1 [Example 159, 3-[4-[2-(2-Fluorophenoxy)ethyl]piperidino]methyl-1H-pyrazin-2-one] | 9.4
40 | O=c1cncc(CCN2CCC(COc3ccccc3)CC2)[nH]1 [Example 245, 6-[2-[4-(Phenoxymethyl)piperidino]ethyl]-1H-pyrazin-2-one] | 4.4
41 | O=c1[nH]ccnc1CN1CCC(/C=C/c2ccccc2OCC2CCCCC2)CC1 [Example 412, (E)-3-[4-[2-[2-(Cyclohexylmethyloxy)phenyl]vinyl]piperidino]methyl-1H-pyrazin-2-one oxalate] | 1.2
42 | O=C(Cc1ccccc1-c1ccccc1)C1CCN(Cc2ncc[nH]c2=O)CC1 [Example 359, 3-[4-[2-(2-Biphenyl)acetyl]piperidino]methyl-1H-pyrazin-2-one] | 1.4
43 | O=c1[nH]ccnc1CN1CCC(c2nc(-c3ccc(F)cc3)no2)CC1 [Example 189, 3-[4-[3-(4-Fluorophenyl)-1,2,4-oxadiazol-5-yl]piperidino]methyl-1H-pyrazin-2-one] | 7.2
44 | O=c1[nH]ccnc1CN1CCCC(COc2ccccc2F)CC1 (centres unmarked) [Example 388, 3-[4-(2-Fluorophenoxymethyl)azepan-1-yl]methyl-1H-pyrazin-2-one] | 4.7
45 | O=c1cncc(CCN2CCC3(CC2)CC(Oc2ccccc2F)C3)[nH]1 [Example 119, 6-[2-[2-(2-Fluorophenoxy)-7-azaspiro[3.5]non-7-yl]ethyl]-1H-pyrazin-2-one] | 8.4
46 | COc1ccccc1CCC1CCCN(Cc2ncc[nH]c2=O)C1 (centres unmarked) [Example 155, 3-[3-[2-(2-Methoxyphenyl)ethyl]piperidino]methyl-1H-pyrazin-2-one] | 3.5
47 | Cc1ccccc1OCC1(C)CCN(Cc2ncc[nH]c2=O)CC1 [Example 355, 3-[4-Methyl-4-(2-methylphenoxymethyl)piperidino]methyl-1H-pyrazin-2-one] | 2.5

— patent US20050245527A1, “Nitrogen containing heterocyclic compounds and medicines containing the same” (priority 2002, published 2005)
